One test concerns Th17 cells. In words: ATAC-Seq chromatin accessibility, Th17. The format is cell-based, mouse. The note with it: Th17, 500 nM CB839, day 5. On the procedure:
ATAC-Seq: Crude nuclei pellets were isolated as described elsewhere (see, e.g., Buenrostro et al., 2013 Nat Meth. 10(12):1213-1218) with modifications. Briefly, naïve CD4 T cells were skewed to Th1 and Th17 subsets in vitro with vehicle or in the presence of 500 nM CB839. At Day 5, T cells were re-isolated for CD4+ cells using Miltenyi CD4+ negative selection kit (Cat #: 130-104-454). 1×10^5 cells were removed for nuclei extraction in ATAC-Seq lysing buffer. Cells were exposed to Tn5+ adaptor proteins from Nextera DNA for 30 min at 37° C. and immediately placed on ice. Transposed eluate was amplified via PCR using Nextera DNA preparation kit (Illumina, Cat #: FC-121-1030), NEBNext High-fidelity 2× PCR mix (New England Labs, Cat #: M0541), and multiplexed (Illumina, Cat #: FC-121-1011). Samples were purified using Zymo DNA cleanup kit (Cat #: D4011). QC of samples was run on bioanalyzer before being sent for sequencing. RNA-Seq: Th1 and Th17 cells skewed with or without CB839 were isolated as previously described and total RNA extracted (Qiagen RNEasy Mini kit, Cat #: 74104). RNA was sent to VANTAGE core at Vanderbilt University and sequenced on HiSeq 2500. n=3 for each sample was analyzed. Samples were analyzed using the R program DESeq2. GSEA was performed using MSigDB. […]

The next test has as its system Th1 cells. In words: Intracellular metabolites by mass spectrometry and pathway analysis, Th1. The format is cell-based, mouse. The note with it: for Hits: Th1 Pathway. The protocol:
Differentiation: CD4 cells were isolated as previously described and differentiated in subset-specific medium (in triplicate) for 3 days, split at day 3 with new media and IL-2, then allowed to incubate a further 2 days. At day 5, wells were combined, cells washed lx in MACS buffer, re-isolated for CD4 via AutoMACS Pro automated magnetic separator (Miltenyi, Cat #: 130-092-545). Metabolites from Th1 and Th17 cells were extracted as described above.
Differentiation. CD4 cells were isolated as previously described and differentiated in subset-specific medium in the presence of vehicle or CB839 (in triplicate) for 3 days, split at day 3 with new media and IL-2, then allowed to incubate a further 2 days. At day 5, wells were combined, cells washed 1× in MACS buffer and re-isolated for CD4 via AutoMACS Pro automated magnetic separator (Miltenyi, Cat #: 130-092-545). Metabolites from Th1 and Th17 cells were extracted and analyzed by LC-HRMS using a Q-Exactive as described previously (Gerriets et al., 2015). Data were range scaled and analyzed using Metaboanalyst 3.5 (Xia and Wishart, 2002) to generate heat maps and for principle component analyses.

As for `O=C(Cc1cccc(OC(F)(F)F)c1)Nc1ccc(CCCCc2nnc(NC(=O)Cc3ccccn3)s2)nn1` [CB839], the “genes with regions of altered chromatin accessibility” value in the test on Th17 cells is “more genes with regions of reduced accessibility”. The “2-hydroxyglutarate (2-HG)” value with Th1 cells (Th1, CB839-treated vs vehicle) was “increased in both Th1 and Th17”. In addition, the “intracellular α-KG” value in the test with Th1 cells (Th1, CB839-treated vs vehicle) was “reduced”. The “programs of intracellular metabolites” value in the test with Th1 cells (Th1, differentiated with CB839, 5 days) is reported as “shifted”. The “glutamate and aspartate levels” value with Th1 cells (Th1, over five days) is reported as “rapidly decreased”. In addition, the “steady state levels of glutamine” value in the test on Th1 cells (Th1, over five days) is on record as “rapidly increased”. The Hits came to 8 with Th1 cells (Alanine, aspartate and glutamate metabolism); 6 with Th1 cells (Arginine and proline metabolism); 3 in the test on Th1 cells (Butanoate metabolism); 5 in the test on Th1 cells (Citrate cycle (TCA cycle)); 3 with Th1 cells (Cysteine and methionine metabolism); 3 with Th1 cells (D-Glutamine and Dglutamate metabolism). Further, the Hits in the test on Th1 cells (Histidine metabolism) stood at 3; with Th1 cells (Nitrogen metabolism), 2; in the test on Th1 cells (Pyrimidine metabolism), 6; in the test on Th1 cells (Pyruvate metabolism), 3.
